From ChEMBL document CHEMBL1133887, “Anti-influenza virus activities of 2-alkoxyimino-n-(2-isoxazolin-3-ylmethyl)acetamides” (Bioorg Med Chem Lett, 2001)
Converted amounts (≈) assume the structure as drawn.

Key:
[1] = Antiviral activity against A/WSN/33 strain of influenza virus (H1N1 subtype) in MDBK cells using cell protection assay; expressed as 1-10 ppm; type: functional, cell-based; conditions: Bos taurus
[2] = Evaluated for cytotoxic activity in MDBK cells; type: functional; conditions: Bos taurus
[3] = Antiviral activity against A/WSN/33 strain of influenza virus (H1N1 subtype) in MDBK cells using cell protection assay; expressed as 10-100 ppm; type: functional, cell-based; conditions: Bos taurus
[4] = Antiviral activity against A/WSN/33 strain of influenza virus (H1N1 subtype) in MDBK cells using cell protection assay; expressed as 100 ppm; type: functional, cell-based; conditions: Bos taurus
cells = type: functional, cell-based; conditions: Bos taurus, MDBK
[5] = The compound was evaluated for cytotoxic activity in MDBK cells; expressed as >100 ppm; type: functional; conditions: Bos taurus
[6] = Antiviral activity against A/WSN/33 strain of influenza virus (H1N1 subtype) in MDBK cells using cell protection assay; expressed as >10-100 ppm; type: functional, cell-based; conditions: Bos taurus
[7] = Antiviral activity against A/WSN/33 strain of influenza virus (H1N1 subtype) in MDBK cells using cell protection assay; type: functional, cell-based; conditions: Bos taurus

Structure (SMILES) | CC50 [2] | EC50 [3] | further results
CC(C)O/N=C(\C#N)C(=O)NCC1=NOC(C(C)(C)C)C1 (stereo not given) | > 100 µg/mL | – | EC50 [1]: 10 µg/mL (≈ 34 µM)
NC12CC3CC(CC(C3)C1)C2 [AMANTADINE] | > 100 µg/mL | 100 µg/mL (≈ 661 µM) | –
C=CCO/N=C(\CC)C(=O)NCC1=NOC(C(C)(C)C)C1 (stereo not given) | > 100 µg/mL | – | EC50 [4]: 100 µg/mL (≈ 339 µM)
CCNC(=O)NC(=O)/C(C#N)=N/OC [CYMOXANIL] | > 100 µg/mL | – | EC50 (cells): > 100 µg/mL
CC(C)(C)C1CC(CNC(=O)/C(C#N)=N/OCC#N)=NO1 (stereo not given) | > 100 µg/mL | 100 µg/mL (≈ 343 µM) | –
CO/N=C(/C#N)C(=O)NCC1=NOC(C)(C)C1 | > 100 µg/mL | – | EC50 (cells): > 100 µg/mL
CO/N=C(\C#N)C(=O)NCC1=NOC(C)C1 (stereo not given) | – | 100 µg/mL (≈ 446 µM) | CC50 [5]: > 100 µg/mL
CC(C)(C)C1CC(CNC(=O)/C(C#N)=N/OCc2cccnc2)=NO1 (stereo not given) | > 100 µg/mL | – | EC50 (cells): > 100 µg/mL
CO/N=C(\C#N)C(=O)NC(=O)OC(C)(C)C | > 100 µg/mL | – | EC50 (cells): > 100 µg/mL
C=CCO/N=C(\C#N)C(=O)NCC1=NOC(c2ccccc2)(c2ccccc2)C1 | 100 µg/mL (≈ 257 µM) | – | EC50 [6]: > 100 µg/mL
C=CCO/N=C(\C)C(=O)NCC1=NOC(C(C)(C)C)C1 (stereo not given) | > 100 µg/mL | – | EC50 [7]: 6 µg/mL (≈ 21.3 µM)
C=CCO/N=C(\C#N)C(=O)NCC1=NOC(C(C)(C)C)C1 (stereo not given) | > 100 µg/mL | – | EC50 [7]: 3 µg/mL (≈ 10.3 µM)
CO/N=C(\C#N)C(=O)NCC1=NOC(C)(C)C1 | > 100 µg/mL | 100 µg/mL (≈ 420 µM) | –
C=CCO/N=C(\C#N)C(=O)NCc1cc(C(C)(C)C)on1 | 100 µg/mL (≈ 344 µM) | 100 µg/mL (≈ 344 µM) | –
CO/N=C(\C#N)C(=O)NCC1CC(C(C)(C)C)=NO1 (stereo not given) | > 100 µg/mL | 100 µg/mL (≈ 376 µM) | –
C=CCO/N=C/C(=O)NCC1=NOC(C(C)(C)C)C1 (stereo not given) | > 100 µg/mL | – | EC50 [4]: 100 µg/mL (≈ 374 µM)
CO/N=C(/C#N)C(=O)NCC1=NOC(C(C)(C)C)C1 (stereo not given) | > 100 µg/mL | 100 µg/mL (≈ 376 µM) | –
CCO/N=C(\C#N)C(=O)NCC1=NOC(C(C)(C)C)C1 (stereo not given) | > 100 µg/mL | – | EC50 [1]: 10 µg/mL (≈ 35.7 µM)
CO/N=C(\C#N)C(=O)NCc1cccs1 | > 100 µg/mL | – | EC50 (cells): > 100 µg/mL
CO/N=C(\C#N)C(=O)NC1=NOC(C(C)(C)C)C1 (stereo not given) | > 100 µg/mL | – | EC50 (cells): > 100 µg/mL
C=CCO/N=C(\C#N)C(=O)NCC1=NOC(c2ccccc2)C1 (stereo not given) | 100 µg/mL (≈ 320 µM) | 100 µg/mL (≈ 320 µM) | –
CO/N=C(\C#N)C(=O)NCC1=NOC(C(C)(C)C)C1 (stereo not given) | > 100 µg/mL | – | EC50 [1]: 10 µg/mL (≈ 37.6 µM)
CC(C)(C)C1CC(CNC(=O)/C(C#N)=N/OCc2ccccc2)=NO1 (stereo not given) | 100 µg/mL (≈ 292 µM) | 100 µg/mL (≈ 292 µM) | –
CO/N=C(\C#N)C(=O)NCc1cccnc1 | > 100 µg/mL | – | EC50 (cells): > 100 µg/mL
C=CCO/N=C(/C(=O)NCC1=NOC(C(C)(C)C)C1)c1ccccc1 (stereo not given) | > 100 µg/mL | – | EC50 [4]: 100 µg/mL (≈ 291 µM)
